The target of test [1] is T1, Vascular endothelial growth factor receptor 2 (Homo sapiens, UniProt P35968). The test is described as follows: Inhibition of KDR using Tyr 01 peptide as substrate at 1 uM after 60 mins by Z'-LYTE assay.
In test [2] the target is T2, Mast/stem cell growth factor receptor Kit (Homo sapiens, UniProt P10721). Nature of the test: Inhibition of c-Kit using Tyr 06 peptide as substrate at 10 uM after 60 mins by Z'-LYTE assay.
Test [3] deals with T1, Vascular endothelial growth factor receptor 2. Nature of the test: Inhibition of KDR using Tyr 01 peptide as substrate at 10 uM after 60 mins by Z'-LYTE assay.
For test [4], the target named is Platelet-derived growth factor receptor beta (Homo sapiens) (UniProt P09619). Nature of the test: Inhibition of PDGFRbeta using Tyr 04 peptide as substrate at 10 uM after 60 mins by Z'-LYTE assay.
Test [5] concerns the target T2, Mast/stem cell growth factor receptor Kit. Nature of the test: Inhibition of c-Kit using Tyr 06 peptide as substrate at 1 uM after 60 mins by Z'-LYTE assay.
Test [6] concerns the target Platelet-derived growth factor receptor alpha (Homo sapiens) (UniProt P16234). The test is described as follows: Inhibition of PDGFRalpha using Tyr 04 peptide as substrate at 10 uM after 60 mins by Z'-LYTE assay.
For test [7], the target named is Vascular endothelial growth factor receptor 1 (Homo sapiens) (UniProt P17948). Nature of the test: Inhibition of VEGFR1 using Tyr 04 peptide as substrate at 10 uM after 60 mins by Z'-LYTE assay.
For test [8], the target named is Receptor-type tyrosine-protein kinase FLT3 (Homo sapiens) (UniProt P36888). Nature of the test: Inhibition of Flt3 using Tyr 02 peptide as substrate at 10 uM after 60 mins by Z'-LYTE assay.
Test [9] has as its target Angiopoietin-1 receptor (Homo sapiens) (UniProt Q02763). Nature of the test: Inhibition of Tie-2 using Tyr 05 peptide as substrate at 1 uM after 60 mins by Z'-LYTE assay.
The target of test [10] is Platelet-derived growth factor receptor alpha (Homo sapiens) (UniProt P16234). The test is described as follows: Inhibition of PDGFRalpha using Tyr 04 peptide as substrate at 1 uM after 60 mins by Z'-LYTE assay.
For test [11], the target named is Vascular endothelial growth factor receptor 3 (Homo sapiens) (UniProt P35916). Nature of the test: Inhibition of VEGFR3 using Tyr 04 peptide as substrate at 10 uM after 60 mins by Z'-LYTE assay.
Test [12] has the same target. The test is described as follows: Inhibition of VEGFR3 using Tyr 04 peptide as substrate at 1 uM after 60 mins by Z'-LYTE assay.
In test [13] the target is Receptor-type tyrosine-protein kinase FLT3 (Homo sapiens) (UniProt P36888). Nature of the test: Inhibition of Flt3 using Tyr 02 peptide as substrate at 1 uM after 60 mins by Z'-LYTE assay.
The target of test [14] is Platelet-derived growth factor receptor beta (Homo sapiens) (UniProt P09619). Nature of the test: Inhibition of PDGFRbeta using Tyr 04 peptide as substrate at 1 uM after 60 mins by Z'-LYTE assay.
Test [15] concerns the target Vascular endothelial growth factor receptor 1 (Homo sapiens) (UniProt P17948). The test is described as follows: Inhibition of VEGFR1 using Tyr 04 peptide as substrate at 1 uM after 60 mins by Z'-LYTE assay.
In test [16] the target is Angiopoietin-1 receptor (Homo sapiens) (UniProt Q02763). The test is described as follows: Inhibition of Tie-2 using Tyr 05 peptide as substrate at 10 uM after 60 mins by Z'-LYTE assay.

We go through 14 molecules from ChEMBL document CHEMBL1914443, “Inhibition of c-Kit, VEGFR-2 (KDR), and ABCG2 by analogues of OSI-930” (Bioorg Med Chem Lett, 2011).

Some results are limits rather than exact numbers.

Sequence of Angiopoietin-1 receptor (Homo sapiens) (Q02763 whole entry): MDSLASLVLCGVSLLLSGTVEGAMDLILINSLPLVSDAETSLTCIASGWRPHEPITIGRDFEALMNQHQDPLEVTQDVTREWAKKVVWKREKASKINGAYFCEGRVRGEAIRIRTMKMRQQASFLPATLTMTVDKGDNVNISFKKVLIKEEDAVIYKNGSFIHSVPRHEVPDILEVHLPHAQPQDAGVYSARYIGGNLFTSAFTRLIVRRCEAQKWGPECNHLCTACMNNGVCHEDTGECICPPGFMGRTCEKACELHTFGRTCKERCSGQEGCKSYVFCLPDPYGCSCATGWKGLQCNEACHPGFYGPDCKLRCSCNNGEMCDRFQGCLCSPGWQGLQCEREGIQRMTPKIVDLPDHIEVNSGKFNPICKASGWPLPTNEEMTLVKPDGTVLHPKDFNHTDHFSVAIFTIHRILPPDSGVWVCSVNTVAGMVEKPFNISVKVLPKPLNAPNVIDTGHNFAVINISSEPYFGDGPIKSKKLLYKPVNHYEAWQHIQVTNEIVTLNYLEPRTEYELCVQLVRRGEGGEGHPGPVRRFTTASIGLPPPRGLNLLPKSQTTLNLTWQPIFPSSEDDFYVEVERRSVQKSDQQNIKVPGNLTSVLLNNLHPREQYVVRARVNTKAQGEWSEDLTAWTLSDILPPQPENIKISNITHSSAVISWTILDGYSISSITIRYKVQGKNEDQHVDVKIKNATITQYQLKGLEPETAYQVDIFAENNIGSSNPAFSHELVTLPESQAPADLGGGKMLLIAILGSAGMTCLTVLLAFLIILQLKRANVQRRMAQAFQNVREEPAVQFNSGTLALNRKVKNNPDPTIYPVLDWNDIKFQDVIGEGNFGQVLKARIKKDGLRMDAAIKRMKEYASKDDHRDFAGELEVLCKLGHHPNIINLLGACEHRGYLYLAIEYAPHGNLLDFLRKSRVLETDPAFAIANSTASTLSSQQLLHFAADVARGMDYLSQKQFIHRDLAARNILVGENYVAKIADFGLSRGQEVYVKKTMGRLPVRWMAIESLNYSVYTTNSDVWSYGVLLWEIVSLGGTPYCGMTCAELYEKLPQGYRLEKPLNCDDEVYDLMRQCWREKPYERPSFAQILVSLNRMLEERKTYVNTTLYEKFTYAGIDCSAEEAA
Sequence of Platelet-derived growth factor receptor alpha (Homo sapiens) (P16234 whole entry): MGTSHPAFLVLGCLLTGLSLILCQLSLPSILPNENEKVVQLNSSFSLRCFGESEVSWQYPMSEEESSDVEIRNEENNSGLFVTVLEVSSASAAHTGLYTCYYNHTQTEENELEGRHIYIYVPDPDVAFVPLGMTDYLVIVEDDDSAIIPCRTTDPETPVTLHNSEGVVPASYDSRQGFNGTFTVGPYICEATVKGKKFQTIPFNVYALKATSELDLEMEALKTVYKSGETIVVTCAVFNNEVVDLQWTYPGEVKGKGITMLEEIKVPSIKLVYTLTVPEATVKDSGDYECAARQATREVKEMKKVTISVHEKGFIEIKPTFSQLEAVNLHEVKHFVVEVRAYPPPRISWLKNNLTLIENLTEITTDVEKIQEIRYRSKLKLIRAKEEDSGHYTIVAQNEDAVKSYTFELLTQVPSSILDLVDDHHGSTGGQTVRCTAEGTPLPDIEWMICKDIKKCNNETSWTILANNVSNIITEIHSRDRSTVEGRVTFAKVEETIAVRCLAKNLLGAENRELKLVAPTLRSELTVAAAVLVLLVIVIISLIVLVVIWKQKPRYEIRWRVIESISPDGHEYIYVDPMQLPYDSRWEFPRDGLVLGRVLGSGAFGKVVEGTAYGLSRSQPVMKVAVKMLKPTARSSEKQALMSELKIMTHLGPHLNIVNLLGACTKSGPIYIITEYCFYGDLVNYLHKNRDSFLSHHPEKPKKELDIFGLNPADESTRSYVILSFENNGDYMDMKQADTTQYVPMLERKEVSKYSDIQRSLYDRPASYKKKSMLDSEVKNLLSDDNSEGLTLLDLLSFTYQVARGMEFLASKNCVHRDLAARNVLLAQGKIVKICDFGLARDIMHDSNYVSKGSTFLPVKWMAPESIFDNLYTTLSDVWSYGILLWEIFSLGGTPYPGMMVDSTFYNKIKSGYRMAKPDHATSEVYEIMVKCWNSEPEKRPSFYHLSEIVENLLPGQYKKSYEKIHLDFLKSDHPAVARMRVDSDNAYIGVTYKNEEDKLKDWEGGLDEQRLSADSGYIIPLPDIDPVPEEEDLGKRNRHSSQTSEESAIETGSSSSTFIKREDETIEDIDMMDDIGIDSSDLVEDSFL
Sequence of Vascular endothelial growth factor receptor 3 (Homo sapiens) (P35916 whole entry): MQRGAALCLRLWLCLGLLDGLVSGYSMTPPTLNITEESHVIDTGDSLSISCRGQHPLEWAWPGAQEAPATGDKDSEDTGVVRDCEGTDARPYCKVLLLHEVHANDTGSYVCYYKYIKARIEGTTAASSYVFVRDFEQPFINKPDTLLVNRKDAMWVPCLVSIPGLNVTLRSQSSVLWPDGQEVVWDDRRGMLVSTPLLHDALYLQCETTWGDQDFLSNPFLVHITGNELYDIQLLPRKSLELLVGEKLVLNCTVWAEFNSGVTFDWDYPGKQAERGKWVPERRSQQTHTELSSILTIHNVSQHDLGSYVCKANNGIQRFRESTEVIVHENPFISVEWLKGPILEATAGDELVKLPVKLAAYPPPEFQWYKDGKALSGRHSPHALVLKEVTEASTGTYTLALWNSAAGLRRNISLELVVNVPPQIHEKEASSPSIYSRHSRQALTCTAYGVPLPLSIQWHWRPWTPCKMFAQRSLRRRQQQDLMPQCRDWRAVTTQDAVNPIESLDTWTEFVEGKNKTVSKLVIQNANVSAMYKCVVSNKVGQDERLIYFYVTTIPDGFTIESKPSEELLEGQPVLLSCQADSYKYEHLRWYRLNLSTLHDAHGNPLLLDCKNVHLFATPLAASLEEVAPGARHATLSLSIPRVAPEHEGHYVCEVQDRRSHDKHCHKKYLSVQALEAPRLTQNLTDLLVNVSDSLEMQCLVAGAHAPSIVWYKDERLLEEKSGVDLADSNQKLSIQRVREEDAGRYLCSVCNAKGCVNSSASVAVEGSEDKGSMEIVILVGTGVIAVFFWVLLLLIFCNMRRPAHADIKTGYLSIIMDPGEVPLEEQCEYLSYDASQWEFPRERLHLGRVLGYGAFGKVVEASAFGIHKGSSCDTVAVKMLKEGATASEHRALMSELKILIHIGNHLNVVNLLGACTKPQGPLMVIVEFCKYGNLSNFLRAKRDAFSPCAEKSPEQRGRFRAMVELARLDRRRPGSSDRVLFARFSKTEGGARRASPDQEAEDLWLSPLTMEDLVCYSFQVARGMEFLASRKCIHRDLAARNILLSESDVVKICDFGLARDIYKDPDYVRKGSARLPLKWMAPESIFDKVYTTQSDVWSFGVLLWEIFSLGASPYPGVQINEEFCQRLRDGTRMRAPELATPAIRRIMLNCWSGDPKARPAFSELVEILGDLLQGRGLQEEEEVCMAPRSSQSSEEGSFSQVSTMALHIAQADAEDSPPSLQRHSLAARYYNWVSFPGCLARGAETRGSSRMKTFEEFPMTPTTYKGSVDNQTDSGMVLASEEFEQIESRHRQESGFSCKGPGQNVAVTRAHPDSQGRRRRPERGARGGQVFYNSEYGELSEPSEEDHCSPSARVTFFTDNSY
Sequence of Vascular endothelial growth factor receptor 1 (Homo sapiens) (P17948 whole entry): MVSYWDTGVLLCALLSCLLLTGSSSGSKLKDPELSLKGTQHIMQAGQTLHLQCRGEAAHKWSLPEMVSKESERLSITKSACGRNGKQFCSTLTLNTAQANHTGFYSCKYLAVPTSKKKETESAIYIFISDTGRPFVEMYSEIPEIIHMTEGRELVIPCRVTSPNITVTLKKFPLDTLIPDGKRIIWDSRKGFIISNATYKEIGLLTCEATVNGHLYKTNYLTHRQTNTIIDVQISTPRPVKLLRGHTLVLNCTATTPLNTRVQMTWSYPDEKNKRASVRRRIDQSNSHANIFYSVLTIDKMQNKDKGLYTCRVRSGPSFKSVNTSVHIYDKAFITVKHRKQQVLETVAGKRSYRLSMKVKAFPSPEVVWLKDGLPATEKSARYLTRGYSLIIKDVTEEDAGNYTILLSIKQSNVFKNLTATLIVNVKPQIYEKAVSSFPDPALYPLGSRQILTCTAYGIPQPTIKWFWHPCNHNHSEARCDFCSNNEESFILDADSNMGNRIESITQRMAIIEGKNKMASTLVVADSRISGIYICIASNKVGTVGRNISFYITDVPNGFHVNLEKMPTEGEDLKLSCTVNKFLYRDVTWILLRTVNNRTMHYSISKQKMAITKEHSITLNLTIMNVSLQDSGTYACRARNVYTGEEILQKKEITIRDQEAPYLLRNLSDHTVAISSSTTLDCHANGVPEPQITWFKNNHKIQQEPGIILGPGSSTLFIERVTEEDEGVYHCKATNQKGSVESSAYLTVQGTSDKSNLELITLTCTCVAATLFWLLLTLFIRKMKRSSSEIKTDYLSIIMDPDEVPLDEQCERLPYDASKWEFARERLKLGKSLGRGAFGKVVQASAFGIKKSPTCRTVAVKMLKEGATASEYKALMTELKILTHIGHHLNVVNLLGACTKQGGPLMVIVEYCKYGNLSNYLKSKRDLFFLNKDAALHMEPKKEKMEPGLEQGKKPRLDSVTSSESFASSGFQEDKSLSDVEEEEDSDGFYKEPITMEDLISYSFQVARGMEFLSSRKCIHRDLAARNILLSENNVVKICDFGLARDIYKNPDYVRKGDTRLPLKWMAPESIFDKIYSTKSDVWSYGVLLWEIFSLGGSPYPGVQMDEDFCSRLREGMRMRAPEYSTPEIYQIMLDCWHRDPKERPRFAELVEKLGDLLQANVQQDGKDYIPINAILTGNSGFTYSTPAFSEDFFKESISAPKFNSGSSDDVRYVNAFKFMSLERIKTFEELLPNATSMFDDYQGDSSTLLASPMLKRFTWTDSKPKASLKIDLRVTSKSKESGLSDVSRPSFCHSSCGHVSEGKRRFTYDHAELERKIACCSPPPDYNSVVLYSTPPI

On to `O=C(Nc1ccc(OC(F)(F)F)cc1)c1sccc1NCc1ccc(O)cc1`, for which the inhibition was under 40% in test [1]; 68% in test [2]; 54% in [3]; 44% in [4]; under 40% in test [5].
In the case of `O=C(Nc1ccc(OC(F)(F)F)cc1)c1sccc1NCc1ccncc1[N+](=O)[O-]`, the inhibition in test [1] is under 40%; in [2], 80%; in test [3] it was under 40%; in [5] it was under 40%.
As to `CC(=O)Nc1cc(CNc2ccsc2C(=O)Nc2ccc(OC(F)(F)F)cc2)ccn1`, the inhibition in test [1] came to 101%; in test [2], 102%; in [3], 101%; in test [5], 81%.
As for `O=C(CBr)Nc1cccc(CN2C(=O)CN(c3ccc(OC(F)(F)F)cc3)C(=O)c3sccc32)c1`, the inhibition in test [1] was under 40%; in test [2], 41%; in test [3], under 40%; in [5], under 40%.
Turning to `CC(=O)Nc1ccc(CNc2ccsc2C(=O)Nc2ccc(OC(F)(F)F)cc2)cc1`, the inhibition in [1], in [6], in [7], in test [2], in test [8] and in test [3] was under 40% in each case. Also, the inhibition in test [4], in test [9], in [10], in test [11], in [5] and in test [12] was under 40% in each case. Also, the inhibition in test [13], in test [14], in test [15] and in [16] was under 40% in each case.
As to `O=C(Nc1ccc(OC(F)(F)F)cc1)c1sccc1NCc1ccc(N=C=S)cc1`, the inhibition in test [1], in test [6], in test [7], in test [2], in test [8] and in test [3] was under 40% throughout. The inhibition in [4], in test [9], in test [10], in [11], in test [5] and in test [12] was under 40% throughout. Also, the inhibition in test [13], in [14], in test [15] and in test [16] was under 40% each time.
Take `Nc1cnccc1CNc1ccsc1C(=O)Nc1ccc(OC(F)(F)F)cc1`: the inhibition in [1] came out at 50%; in test [2] it was 91%; in [8], 41%; in test [3] it was 88%; in test [4], 47%; in [11] it was 41%. Also, the inhibition in test [5] is 57%.
For the molecule `Nc1cccc(CNc2ccsc2C(=O)Nc2ccc(OC(F)(F)F)cc2)c1`, the inhibition in [1], in [6], in test [7], in test [2], in test [8] and in [3] was under 40% throughout. In addition, the inhibition in test [4], in test [9], in test [10], in [11], in test [5] and in [12] was under 40% in each case. The inhibition in test [13], in test [14], in [15] and in test [16] was under 40% throughout.
As to `Nc1ccccc1CNc1ccsc1C(=O)Nc1ccc(OC(F)(F)F)cc1`, the inhibition in test [1], in test [6], in test [7], in test [2], in test [8] and in [3] was under 40% throughout. The inhibition in test [4], in test [9], in [10], in [11], in test [5] and in [12] was under 40% each time. Moreover, the inhibition in [13], in test [14], in test [15] and in test [16] was under 40% each time.
For `O=C(Nc1ccc(OC(F)(F)F)cc1)c1sccc1NCc1cccc(N=C=S)c1`, the inhibition in test [1], in test [6], in [7], in test [2], in test [8] and in [3] was under 40% throughout. Also, the inhibition in test [4], in test [9], in test [10], in [11], in test [5] and in test [12] was under 40% throughout. Besides, the inhibition in [13], in test [14], in [15] and in [16] was under 40% each time.
In the case of `CC(=O)Nc1ccccc1CNc1ccsc1C(=O)Nc1ccc(OC(F)(F)F)cc1`, the inhibition in [1], in test [6], in test [7], in test [2], in [8] and in [3] was under 40% each time. In addition, the inhibition in test [4], in test [9], in test [10], in test [11], in [5] and in [12] was under 40% throughout. Also, the inhibition in [13], in test [14], in test [15] and in [16] was under 40% in each case.
Turning to `O=C(Nc1ccc(OC(F)(F)F)cc1)c1sccc1NCc1ccccc1[N+](=O)[O-]`, the inhibition in [1], in [6], in test [7], in test [2], in test [8] and in [3] was under 40% throughout. For the same molecule, the inhibition in [4], in test [9], in test [10], in test [11], in [5] and in test [12] was under 40% each time. Besides, the inhibition in test [13], in [14], in test [15] and in test [16] was under 40% each time.
As to `O=C(Nc1ccc(OC(F)(F)F)cc1)c1sccc1NCc1ccc([N+](=O)[O-])cc1`, the inhibition in [1], in test [6], in [7], in test [2], in [8] and in test [3] was under 40% each time. Also, the inhibition in test [4], in test [9], in test [10], in test [11], in test [5] and in [12] was under 40% each time. In addition, the inhibition in test [13], in test [14], in [15] and in [16] was under 40% in each case.
Regarding `CC(=O)Nc1cccc(CNc2ccsc2C(=O)Nc2ccc(OC(F)(F)F)cc2)c1`, the inhibition in test [1] is under 40%; in test [2], 58%; in test [3], under 40%; in [5], under 40%.
